# Experimental data: PubChem BioAssay AID1963869 (Molecular Pharmacology Branch, DTP, NCI, 2024)
# System: KRAS patient-derived spheroids with HUVEC/MSC, viability
# Assay: Anticancer human tumor 323965-272-R-J2-PDC patient-derived pancreatic carcinoma cell line growth inhibition [KRAS2]
# Conditions: for viability, T/C: stronger effect = lower value
# Procedure, shortened: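 KRAS-mutant tumor cells were grown as spheroids with HUVEC endothelial cells and human MSCs as stroma. Targeted agents were tested alone and with KRAS pathway inhibitors. Doses started at or near clinical Cmax, or 10 microM, descending half-log.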
# [1] = curve of first compound, second compound 0.1 µM
# [2] = curve of first compound, second compound 0.316 µM
# [3] = curve of first compound, second compound 1 µM
# [4] = curve of first compound, second compound 3.16 µM
# [5] = curve of first compound, second compound 10 µM
# [6] = second compound 0.1 µM, first compound 0.01 µM
# [7] = second compound 0.1 µM, first compound 0.0316 µM
# [8] = second compound 0.1 µM, first compound 0.1 µM
# [9] = second compound 0.1 µM, first compound 0.316 µM
# [10] = second compound 0.1 µM, first compound 1 µM
# [11] = second compound 0.1 µM, first compound 3.16 µM
# [12] = second compound 0.316 µM, first compound 0.01 µM
# [13] = second compound 0.316 µM, first compound 0.0316 µM
# [14] = second compound 0.316 µM, first compound 0.1 µM
# [15] = second compound 0.316 µM, first compound 0.316 µM
# [16] = second compound 0.316 µM, first compound 1 µM
# [17] = second compound 0.316 µM, first compound 3.16 µM
# [18] = second compound 1 µM, first compound 0.01 µM
# [19] = second compound 1 µM, first compound 0.0316 µM
# [20] = second compound 1 µM, first compound 0.1 µM
# [21] = second compound 1 µM, first compound 0.316 µM
# [22] = second compound 1 µM, first compound 1 µM
# [23] = second compound 1 µM, first compound 3.16 µM
# [24] = second compound 3.16 µM, first compound 0.01 µM
# [25] = second compound 3.16 µM, first compound 0.0316 µM
# [26] = second compound 3.16 µM, first compound 0.1 µM
# [27] = second compound 3.16 µM, first compound 0.316 µM
# [28] = second compound 3.16 µM, first compound 1 µM
# [29] = second compound 3.16 µM, first compound 3.16 µM
# [30] = second compound 10 µM, first compound 0.01 µM
# [31] = second compound 10 µM, first compound 0.0316 µM
# [32] = second compound 10 µM, first compound 0.1 µM
# [33] = second compound 10 µM, first compound 0.316 µM
# [34] = second compound 10 µM, first compound 1 µM
# [35] = second compound 10 µM, first compound 3.16 µM
# [36] = second compound 0.1 µM, first compound 10 µM
# [37] = second compound 0.316 µM, first compound 10 µM
# [38] = second compound 1 µM, first compound 10 µM
# [39] = second compound 3.16 µM, first compound 10 µM
# 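Further: spheroids exposed to agents for 7 days.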
# 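Wherever viability, T/C is given: 100% = DMSO vehicle control viability.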
smiles,measurement,setting,value
CC1COCCN1c1cc(-c2ccnn2C)c2ccnc(-c3ccn[nH]3)c2n1 (configuration not stated) + CNCc1ccccc1-c1csc(C(C)Nc2nc(C)nc3cc(OC)c(OC)cc23)c1,IC50,[1],20.7 nM
same,IC50,[2],21.4 nM
same,IC50,[3],22.3 nM
same,IC50,[4],12.8 nM
same,IC50,[5],< 10 nM
same,"viability, T/C",[6],71.4%
same,"viability, T/C",[7],37.6%
same,"viability, T/C",[8],22.5%
same,"viability, T/C",[9],20.1%
same,"viability, T/C",[10],18.2%
same,"viability, T/C",[11],17.9%
same,"viability, T/C",[12],77.8%
same,"viability, T/C",[13],35.8%
same,"viability, T/C",[14],20.4%
same,"viability, T/C",[15],19%
same,"viability, T/C",[16],16.1%
same,"viability, T/C",[17],17.1%
same,"viability, T/C",[18],85.8%
same,"viability, T/C",[19],34.3%
same,"viability, T/C",[20],17.9%
same,"viability, T/C",[21],17.2%
same,"viability, T/C",[22],14.9%
same,"viability, T/C",[23],16.1%
same,"viability, T/C",[24],57.1%
same,"viability, T/C",[25],24.2%
same,"viability, T/C",[26],5.14%
same,"viability, T/C",[27],4.3%
same,"viability, T/C",[28],7.85%
same,"viability, T/C",[29],8.8%
same,"viability, T/C",[30],0.18%
same,"viability, T/C",[31],0.13%
same,"viability, T/C",[32],0.13%
same,"viability, T/C",[33],0.12%
same,"viability, T/C",[34],0.25%
same,"viability, T/C",[35],0.19%
Cn1nccc1Nc1nccc(-c2cc3c(s2)C(C)(C)N(CCN2CCOCC2)C3=O)n1,"viability, T/C",compound 0.0316 µM,92.9% [middle of 5 runs]
same,"viability, T/C",compound 0.1 µM,87.8% [middle of 5 runs]
same,"viability, T/C",compound 0.316 µM,77.6% [middle of 5 runs]
same,"viability, T/C",compound 1 µM,61.5% [middle of 5 runs]
same,"viability, T/C",compound 3.16 µM,43.7% [middle of 5 runs]
same,"viability, T/C",compound 10 µM,38.1% [middle of 5 runs]
same,IC50,curve of compound,2.35 µM [middle of 5 runs]
CC(C)n1nc(-c2ccc3oc(N)nc3c2)c2c(N)ncnc21 + C=CC(=O)N1CCN(c2nc(=O)n(-c3c(C)ccnc3C(C)C)c3nc(-c4c(O)cccc4F)c(F)cc23)C(C)C1,IC50,[1],0.446 nM
same,IC50,[2],0.394 nM
same,IC50,[3],0.514 nM
same,IC50,[4],0.381 nM
same,IC50,[5],< 0.316 nM
same,"viability, T/C","second compound 0.1 µM, first compound 0.000316 µM",53.7%
same,"viability, T/C","second compound 0.1 µM, first compound 0.001 µM",41.4%
same,"viability, T/C","second compound 0.1 µM, first compound 0.00316 µM",28.3%
same,"viability, T/C",[6],19.1%
same,"viability, T/C",[7],15.9%
same,"viability, T/C",[8],12.3%
same,"viability, T/C","second compound 0.316 µM, first compound 0.000316 µM",53.2%
same,"viability, T/C","second compound 0.316 µM, first compound 0.001 µM",37.8%
same,"viability, T/C","second compound 0.316 µM, first compound 0.00316 µM",30.5%
same,"viability, T/C",[12],22.1%
same,"viability, T/C",[13],14.8%
same,"viability, T/C",[14],12.5%
same,"viability, T/C","second compound 1 µM, first compound 0.000316 µM",56.9%
same,"viability, T/C","second compound 1 µM, first compound 0.001 µM",41.1%
same,"viability, T/C","second compound 1 µM, first compound 0.00316 µM",28.6%
same,"viability, T/C",[18],19.3%
same,"viability, T/C",[19],15.6%
same,"viability, T/C",[20],13.3%
same,"viability, T/C","second compound 3.16 µM, first compound 0.000316 µM",51.6%
same,"viability, T/C","second compound 3.16 µM, first compound 0.001 µM",41.9%
same,"viability, T/C","second compound 3.16 µM, first compound 0.00316 µM",29%
same,"viability, T/C",[24],17.5%
same,"viability, T/C",[25],13.7%
same,"viability, T/C",[26],12.3%
same,"viability, T/C","second compound 10 µM, first compound 0.000316 µM",48.8%
same,"viability, T/C","second compound 10 µM, first compound 0.001 µM",36.3%
same,"viability, T/C","second compound 10 µM, first compound 0.00316 µM",24.1%
same,"viability, T/C",[30],19.4%
same,"viability, T/C",[31],12.4%
same,"viability, T/C",[32],12.7%
COc1cc(Nc2ncc3c(n2)-c2ccc(Cl)cc2C(c2c(F)cccc2OC)=NC3)ccc1C(=O)O + C=CC(=O)N1CCN(c2nc(=O)n(-c3c(C)ccnc3C(C)C)c3nc(-c4c(O)cccc4F)c(F)cc23)C(C)C1,IC50,[1],< 31.6 nM
same,IC50,[2],< 31.6 nM
same,IC50,[3],< 31.6 nM
same,IC50,[4],< 31.6 nM
same,IC50,[5],< 31.6 nM
same,"viability, T/C",[7],53.5%
same,"viability, T/C",[8],36.2%
same,"viability, T/C",[9],26.4%
same,"viability, T/C",[10],31.7%
same,"viability, T/C",[11],43.3%
same,"viability, T/C",[36],46.3%
same,"viability, T/C",[13],54.1%
same,"viability, T/C",[14],35.3%
same,"viability, T/C",[15],28.8%
same,"viability, T/C",[16],30.1%
same,"viability, T/C",[17],39.8%
same,"viability, T/C",[37],51.6%
same,"viability, T/C",[19],53%
same,"viability, T/C",[20],34%
same,"viability, T/C",[21],24.2%
same,"viability, T/C",[22],33.2%
same,"viability, T/C",[23],47.7%
same,"viability, T/C",[38],51.5%
same,"viability, T/C",[25],46.5%
same,"viability, T/C",[26],27.5%
same,"viability, T/C",[27],22.2%
same,"viability, T/C",[28],34.1%
same,"viability, T/C",[29],34.7%
same,"viability, T/C",[39],38.4%
same,"viability, T/C",[31],27.3%
same,"viability, T/C",[32],18.9%
same,"viability, T/C",[33],20.2%
same,"viability, T/C",[34],23%
same,"viability, T/C",[35],23.7%
same,"viability, T/C","second compound 10 µM, first compound 10 µM",27.1%
COC(=O)c1ccc2c(C(=Nc3ccc(N(C)C(=O)CN4CCN(C)CC4)cc3)c3ccccc3)c(O)[nH]c2c1 + C=CC(=O)N1CCN(c2nc(OCC3CCCN3C)nc3c2CCN(c2cccc4cccc(C)c24)C3)CC1CC#N,IC50,"curve of first compound, second compound 0.0316 µM",1640 nM
same,IC50,[1],993 nM
same,IC50,[2],388 nM
same,IC50,[3],873 nM
same,IC50,[4],< 31.6 nM
same,"viability, T/C","second compound 0.0316 µM, first compound 0.0316 µM",76.7%
same,"viability, T/C","second compound 0.0316 µM, first compound 0.1 µM",73.2%
same,"viability, T/C","second compound 0.0316 µM, first compound 0.316 µM",69.8%
same,"viability, T/C","second compound 0.0316 µM, first compound 1 µM",61.8%
same,"viability, T/C","second compound 0.0316 µM, first compound 3.16 µM",35.4%
same,"viability, T/C","second compound 0.0316 µM, first compound 10 µM",19.6%
same,"viability, T/C",[7],66.7%
same,"viability, T/C",[8],68.8%
same,"viability, T/C",[9],65.8%
same,"viability, T/C",[10],49.3%
same,"viability, T/C",[11],28.1%
same,"viability, T/C",[36],19.7%
same,"viability, T/C",[13],63.8%
same,"viability, T/C",[14],67.3%
same,"viability, T/C",[15],49.6%
same,"viability, T/C",[16],38.3%
same,"viability, T/C",[17],20.6%
same,"viability, T/C",[37],18.2%
same,"viability, T/C",[19],64.9%
same,"viability, T/C",[20],62.8%
same,"viability, T/C",[21],58.4%
same,"viability, T/C",[22],49.5%
same,"viability, T/C",[23],23.4%
same,"viability, T/C",[38],16.8%
same,"viability, T/C",[25],26.2%
same,"viability, T/C",[26],25.4%
same,"viability, T/C",[27],30%
same,"viability, T/C",[28],15.6%
same,"viability, T/C",[29],9.71%
same,"viability, T/C",[39],5.57%
